The source made the active and inactive calls. No rule for the calls is given here.
Test system: M. tuberculosis H37Rv growth inhibition with meropenem
Experiment: dose response, H37Rv, with and without meropenem (AID 434987);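 also: growth over 7 days at 37 °C before Alamar Blue read on day 9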
[1] = M. tuberculosis H37Rv growth inhibition, measured here: IC50 without meropenem
[2] = M. tuberculosis H37Rv growth inhibition, measured here: IC90 without meropenem
[3] = measured here: IC90 with meropenem

Row | Compound | IC50 | IC50 [1] | IC90 [2] | IC90 [3]
1 | COc1ccc(OC)c(C2CC(c3c(-c4ccccc4)c4cc(Cl)ccc4[nH]c3=O)=NN2S(C)(=O)=O)c1 (configuration not stated) | > 100 µM (inactive) | > 100 µM | > 100 µM | > 100 µM
2 | CCOc1ccc2cc(S(=O)(=O)N3CCCCC3)ccc2c1 | > 100 µM (inactive) | > 100 µM | > 100 µM | > 100 µM
3 | O=C(C1=C[C@@H](c2ccc(Br)cc2)C[C@@H](OCc2ccc(CO)cc2)O1)N1CCN(Cc2ccc3c(c2)OCO3)CC1 | 79.3 µM (inactive) | > 100 µM | > 100 µM | > 100 µM
4 | COC(=O)c1ccc(/C=N/Nc2nc(-c3ccc(C)cc3)cs2)cc1 | 10.9 µM | > 100 µM | > 100 µM | > 100 µM
5 | Cc1ccc(O)c(-c2cc(-c3ccccc3F)[nH]n2)c1 | > 100 µM (inactive) | > 100 µM | > 100 µM | > 100 µM
6 | Cc1oc(C(C)(C)C)cc1C(=O)Nc1ccc2c(c1)OCCO2 | > 100 µM (inactive) | > 100 µM | > 100 µM | > 100 µM
7 | Cc1ccc(S(=O)(=O)Nc2cccc3cccnc23)c([N+](=O)[O-])c1 | 1.1 µM | 9.07 µM | 12.4 µM | 4.7 µM
8 | CN(/N=C/c1ccncc1)c1cnc2ccccc2n1 | 59.8 µM (inactive) | > 100 µM | > 100 µM | > 100 µM
9 | CCOC(=O)/C=C/c1ccc2c(c1)S(=O)(=O)N(Cc1ccc(OC)cc1)[C@H]2CC(=O)OCC | > 100 µM (inactive) | > 100 µM | > 100 µM | > 100 µM
10 | Cc1ccccc1Cn1cc(NC(=O)CSc2nc3c(c(C(F)(F)F)n2)CCc2ccccc2-3)cn1 | 26.4 µM | > 100 µM | > 100 µM | > 100 µM
11 | CCOC(=O)C1CCCN(c2ccc(NC(=O)c3snc4c(=O)[nH]cnc34)cc2)C1 (configuration not stated) | 12.7 µM | 59.4 µM | > 100 µM | > 100 µM
12 | N#C/C(=C(/O)COC(=O)CCc1ccc(S(=O)(=O)N2CCOCC2)cc1)c1nc2ccccc2[nH]1 | 46.4 µM (inactive) | > 100 µM | > 100 µM | > 100 µM
13 | COc1cccc(-n2c([S-])c(C(=O)Nc3ccc(S(=O)(=O)N4CCOCC4)cc3)[n+]3cc(C(N)=O)ccc23)c1 | > 100 µM (inactive) | > 100 µM | > 100 µM | > 100 µM
14 | Cc1cc(Br)ccc1NC(=O)c1ccccc1-c1ccccc1 | 14.1 µM | > 100 µM | > 100 µM | > 100 µM
15 | Cc1ccc(NC(=O)CSc2n[nH]c(-c3ccco3)n2)cc1 | > 100 µM (inactive) | > 100 µM | > 100 µM | > 100 µM
16 | Cc1c(C(=O)Nc2cccnc2)oc2ccc(Br)cc12 | > 100 µM (inactive) | > 100 µM | > 100 µM | > 100 µM
17 | CSc1ccc(/C=C/C(=O)Nc2ccccc2)cc1 | > 100 µM (inactive) | > 100 µM | > 100 µM | > 100 µM
18 | CC(=O)Nc1ccc(SCC(=O)c2cc(C)n(CC(F)(F)F)c2C)cc1 | 47.7 µM (inactive) | 53.5 µM | > 100 µM | > 100 µM
19 | CC(C(=O)Nc1cc([N+](=O)[O-])ccc1Cl)N1CCN(c2ccccc2O)CC1 (configuration not stated) | > 100 µM (inactive) | > 100 µM | > 100 µM | > 100 µM
20 | COc1cc(OC)c(C(=O)Nc2cccc3ccccc23)cc1OC | > 100 µM (inactive) | > 100 µM | > 100 µM | > 100 µM

Row | Compound | IC50 | IC50 [1] | IC90 [2] | IC90 [3]
21 | NC(=O)C1CCCN(C(=O)c2ccc(NC(=O)c3cccs3)cc2)C1 (configuration not stated) | > 100 µM (inactive) | > 100 µM | > 100 µM | > 100 µM
22 | Cc1ccc(CSc2nccc(-c3c(C)nc4ccccn34)n2)cc1 | 7.91 µM | 22.2 µM | > 100 µM | > 100 µM
23 | CSc1ccccc1C(=O)Nc1cccc([N+](=O)[O-])c1C | > 100 µM (inactive) | > 100 µM | > 100 µM | > 100 µM
24 | CC(=O)c1sc(N/N=C\c2ccc(N(C)C)cc2)nc1C | 49.9 µM (inactive) | > 100 µM | > 100 µM | > 100 µM
25 | O=C(CNC(=O)c1ccc(Br)cc1)NCC(=O)OCc1ccc(Cl)cc1 | 12.4 µM | 56.9 µM | > 100 µM | > 100 µM
26 | NC(=S)N/N=C/c1ccc(/C=N/NC(N)=S)cc1 | 2.5 µM | > 100 µM | > 100 µM | > 100 µM
27 | CSc1nnc(-c2ccc(NC(N)=S)cc2)o1 | 12.2 µM | > 100 µM | > 100 µM | > 100 µM
28 | O=c1[nH]c(=S)[nH]c(O)c1N=Nc1ccc2c(c1)OCCO2 | > 100 µM (inactive) | > 100 µM | > 100 µM | > 100 µM
29 | CCCCN(CC)S(=O)(=O)c1ccc(C(=O)Nc2nnc(CSC)o2)cc1 | 17.2 µM (inactive) | 25.2 µM | > 100 µM | 31.7 µM
30 | CCOC(=O)CNC(=O)c1cccnc1Oc1ccc(Cl)cc1 | 11.4 µM | 36.7 µM | > 100 µM | > 100 µM
31 | CCCN1C(=O)S/C(=C/c2ccc(N3CCOCC3)o2)C1=O | < 0.2 µM | 34.9 µM | > 100 µM | > 100 µM
32 | CN1CCN(c2ccc(NC(=O)c3ccc(-c4cccc([N+](=O)[O-])c4)o3)cc2)CC1 | 5.87 µM (inactive) | 6.97 µM | 18.1 µM | 6.71 µM
33 | C[C@H](NC(=O)c1[nH]cnc1C(=O)Nc1cccc(Cl)c1)c1ccccc1 | 3.59 µM | > 100 µM | > 100 µM | > 100 µM
34 | CC1=NN(c2ccccc2)C(=O)/C1=C/c1c(O)[nH]c(=S)[nH]c1=O | > 100 µM (inactive) | > 100 µM | > 100 µM | > 100 µM
35 | CN(C)c1ccc(/C=C/c2nc3ccccc3s2)cc1 | 8.97 µM | > 100 µM | > 100 µM | > 100 µM
36 | O=C(O)Cc1csc(Nc2cccc(Cl)c2)n1 | > 100 µM (inactive) | > 100 µM | > 100 µM | > 100 µM
37 | CCn1nnnc1SCC(=O)c1ccc(C)cc1C | > 100 µM (inactive) | > 100 µM | > 100 µM | > 100 µM
38 | CCOCC(=O)Nc1ccc(F)c(F)c1 | 81.2 µM (inactive) | 94.5 µM | > 100 µM | > 100 µM
39 | Cc1ccc(-c2nc3ccccc3o2)cc1NC(=S)NC(=O)/C=C/c1ccco1 | 65.8 µM (inactive) | > 100 µM | > 100 µM | > 100 µM
40 | O=C(CC(=O)c1ccccc1)Nc1ccc2c(c1)OCCO2 | 37.2 µM (inactive) | 78.9 µM | > 100 µM | > 100 µM

Row | Compound | IC50 | IC50 [1] | IC90 [2] | IC90 [3]
41 | CNC(=O)Nc1cccc(-c2cc(-c3c(Cl)cccc3Cl)no2)c1 | > 100 µM (inactive) | > 100 µM | > 100 µM | > 100 µM
42 | S=C(NN=C1C2CC3CC(C2)CC1C3)Nc1ccccc1 | 45.7 µM (inactive) | 48.7 µM | 54.7 µM | 51.4 µM
43 | O=C(COc1ccccc1[N+](=O)[O-])N(Cc1cccc(Br)c1)C1CCS(=O)(=O)C1 (configuration not stated) | > 100 µM (inactive) | > 100 µM | > 100 µM | > 100 µM
44 | O=C1N/C(=N\N=C\c2ccc3ncccc3c2)SC1Cc1ccc(SC(F)F)cc1 (configuration not stated) | > 100 µM (inactive) | > 100 µM | > 100 µM | > 100 µM
45 | CCOC(=O)c1c(NC(=O)C(=O)N/N=C/c2ccccc2OC)sc2c1CCCCC2 | > 100 µM (inactive) | > 100 µM | > 100 µM | > 100 µM
46 | CCCN1C(=O)c2ccc(C(=O)Nc3cc(C)on3)cc2C1=O | > 100 µM (inactive) | > 100 µM | > 100 µM | > 100 µM
47 | Cc1cc(NC(=O)CSc2ncnc3c2cnn3-c2ccccc2)no1 | > 100 µM (inactive) | > 100 µM | > 100 µM | > 100 µM
48 | Cc1ncc(CCl)c2c1OC(C)(C)OC2 | 42.5 µM (inactive) | 89.2 µM | > 100 µM | > 100 µM
49 | CC1=NN(c2ccccc2)C(=O)C1C=Nc1ccccc1O (configuration not stated) | > 100 µM (inactive) | > 100 µM | > 100 µM | > 100 µM
50 | COc1ccccc1C(=O)Nc1ccc2c3c(cccc13)CC2 | 8.08 µM | 35.9 µM | > 50 µM | > 100 µM
51 | COc1cc(SC)ccc1C(=O)Nc1ccc(C)cc1C | 38.3 µM | > 100 µM | > 100 µM | > 100 µM
52 | CC(C)CCN1CC(O)=C(c2nc3ccccc3[nH]2)C1=N | 6.68 µM | 73 µM | > 100 µM | > 100 µM
53 | CC(/C=C(\NC(=O)c1ccccc1)C(=O)N=Nc1c(O)[nH]c2ccc(C)cc12)=C\c1ccccc1 | > 100 µM (inactive) | > 100 µM | > 100 µM | > 100 µM
54 | CCC(=O)Oc1oc(-c2ccccc2)nc1C=Nc1ccc(C)cc1 | > 100 µM (inactive) | > 100 µM | > 100 µM | > 100 µM
55 | CC(=O)c1ccc(OC(=O)N(c2ccccc2)c2ccccc2)cc1 | 4.13 µM | 29.6 µM | > 100 µM | 32.9 µM
56 | C/C(=N\NC(=O)c1ccncc1)c1c(O)n(-c2ccccc2)c(=O)[nH]c1=O | 2.81 µM (inactive) | 5.74 µM | > 100 µM | 3.94 µM
57 | O=c1[nH]c(CN(CCO)CCO)nc2c1C1(CCCCC1)Cc1ccccc1-2 | 19.6 µM | > 100 µM | > 100 µM | > 100 µM
58 | Cc1nc(S/C(=C\c2ccc(OCc3ccccc3Cl)cc2)C(=O)O)n[nH]1 | > 100 µM (inactive) | > 100 µM | > 100 µM | > 100 µM

From PubChem BioAssay AID434987 (Southern Research Specialized Biocontainment Screening …, 2010)
